Results: US20140031217A1, “HERBICIDAL COMPOSITIONS COMPRISING 4-AMINO-3-CHLORO-5-FLUORO-6-(4-CHLORO-2-FLUORO-3-METHOXYPHENYL)PYRIDINE-2-CARBOXYLIC ACID OR A DERIVATIVE THEREOF AND AUXIN TRANSPORT INHIBITORS” (DOW AGROSCIENCES LLC, priority 2012, published 2014)

Legend:
CYPRO = experiment: In-water applied (paddy) greenhouse weed control, CYPRO; assay type: in vivo, Cyperus rotundus L.; details: 19 DAA
Experimental: (§1) Weed seeds or nutlets of the desired test plant species were planted in puddled soil (mud) prepared by mixing a shredded, non-sterilized mineral soil (50.5 percent silt, 25.5 percent clay, and 24 percent sand, with a pH of about 7.6 and an organic matter content of about 2.9 percent) and water at a 1:1 volumetric ratio. The prepared mud was dispensed in 365 mL aliquots into 16-ounce (oz.) non-perforated plastic pots with a surface area of 86.59 square centimeters (cm^2) leaving a headspace of 3 centimeters (cm) in each pot. Mud was allowed to dry overnight prior to planting or transplanting. Rice seeds were planted in Sun Gro MetroMix® 306 planting mixture, which typically has a pH of 6.0 to 6.8 and an organic matter content of about 30 percent, in plastic plug trays. Seedlings at the second or third leaf stage of growth were transplanted into 840 mL of mud contained in 32-oz. non-perforated plastic pots with a surface area of 86.59 cm^2 4 days prior to herbicide application. The paddy was created by filling the headspace of the pots with 2.5 to 3 cm of water. When required to ensure good germination and healthy plants, a fungicide treatment and/or other chemical or physical treatment was applied. The plants were grown for 4-22 days in a greenhouse with an approximate 14 h photoperiod which was maintained at about 29′C during the day and 26° C. during the night. Nutrients were added as Osmocote® (19:6:12, N:P:K+minor nutrients) at 2 g per 16-oz. pot and 4 g per 960-mL 32-oz. pot. Water was added on a regular basis to maintain the paddy flood, and supplemental lighting was provided with overhead metal halide 1000-Watt lamps as necessary. The plants were employed for testing when they reached the second or third true leaf stage.
(§2) Treatments consisted of the acid or esters of 4-amino-3-chloro-5-fluoro-6-(4-chloro-2-fluoro-3-methoxy-phenyl)pyridine-2-carboxylic acid (compound A) each formulated as an SC and various herbicidal components alone and in combination. Forms of compound A were applied on an acid equivalent basis.
(§3) Other herbicidal components were applied on an active ingredient basis and included auxin transport inhibiting (ATI) herbicides chlorflurenol-methyl (technical material), chlorflurenol (technical material), diflufenzopyr (technical material), dilfufenzopyr sodium (technical material), flurenol-methyl (technical material,) and naptalam (technical material).
(§4) Treatment requirements for each compound or herbicidal component were calculated based upon the rates being tested, the concentration of active ingredient or acid equivalent in the formulation, an application volume of 2 mL per component per pot, and an application area of 86.59 cm^2 per pot.
(§5) For formulated compounds, a measured amount was placed in an individual 100 or 200 mL glass vial and was dissolved in a volume of 1.25% (v/v) Agri-Dex® crop oil concentrate to obtain application solutions.
(§6) For technical grade compounds, a weighed amount was placed in an individual 100 to 200 mL glass vial and was dissolved in a volume of acetone to obtain concentrated stock solutions. […] The concentrated stock solutions obtained were diluted with an equivalent volume of an aqueous mixture containing 2.5% (v/v) crop oil concentrate so that the final application solutions contained 1.25% (v/v) crop oil concentrate.
(§7) Applications were made by injecting with a pipetter appropriate amounts of the application solutions, individually and sequentially, into the aqueous layer of the paddy. Control plants were treated in the same manner with the solvent blank. Applications were made so that all treated plant material received the same concentrations of acetone and crop oil concentrate.
(§8) The treated plants and control plants were placed in a greenhouse as described above and water was added as needed to maintain a paddy flood. […]

FIMMI = experiment: In-water applied (paddy) greenhouse weed control, FIMMI; assay type: in vivo, Fimbristylis miliacea (L.) Vahl; details: 19 DAA
Experimental: as §1, §2, §3, §4, §5, §6, §7, §8

COc1c(Cl)ccc(-c2nc(C(=O)OCc3ccccc3)c(Cl)c(N)c2F)c1F [Compound A Benzyl Ester]
Visual Weed Control (%) Obs (CYPRO; 8 gae/ha): 50% | Visual Weed Control (%) Obs (CYPRO; 16 gae/ha): 85% | Visual Weed Control (%) Obs (CYPRO; 32 gae/ha): 90% | Visual Weed Control (%) Obs (FIMMI; 8 gae/ha): 0% | Visual Weed Control (%) Obs (FIMMI; 16 gae/ha): 0% | Visual Weed Control (%) Obs (FIMMI; 32 gae/ha): 85%
